Read-outs that look alike come from different tables or passages of the source.
Tests used:
[1] = system: HCV (J399E) inserted with enhanced green fluorescent protein (EGFP); assay: microbe, parasite or virus in culture; assay type: cell-based, Hepatitis C Virus; conditions: for IC50: read-out: IC50 (concentration at which 50% of the replication of HCV was inhibited); for SI (bioactivity selective index): from CC50 and IC50 in Huh7.5.1 cells, SI greater than 2 means effective
Experimental: The in vitro anti-HCV activity assay of the 2′,2-bis-thiazole non-nucleoside compounds at cellular level was performed by using an anti-HCV activity assay protocol recognized by one skilled in the art.
The variation of the green fluorescence intensity was recorded on a microplate reader and cytotoxicity was measured at the same time, so as to evaluate the influence of the compound on the replication activity of HCV.
(§1) Compounds to be tested were dissolved in DMSO to prepare a stock solution before the test. Upon using, the stock solution was diluted to a desired concentration with DMEM (Dulbecco's Modified Eagle Media, purchased from GibcoBRL company (Life Technologies, Grand Island, N.Y., USA)) containing 10% FBS (fetal bovine serum, purchased from Hyclone company (Logan, Utah, USA)).
Positive control: ribavirin (purchased from Sigma/Aldrich). It was dissolved in DMSO to prepare a stock solution and stored at −20° C. before use, and diluted to a desired concentration upon using.
(§2) Huh7.5.1 cells (10% FBS, DMEM) at 10^5 cells/ml were inoculated on a 96-well plate (Costar 3904) with 100 μl per well. 24 h later, the supernatant of the culture media was sucked out, and 50 μl of virus supernatant with MOI=0.1 was added. 8 h later, 50 μl of the testing compound solution was added and 100 μl of culture media was supplemented. After incubation for 72 h, the supernatant was sucked out, and read on a fluorescent microplate reader (Ex=488 nm, Em=516 nm). Then each well was added with 20 μl of MTT (5 mg/ml) and additional 50 μl of culture media. 4 h later, 100 μl of MTT lysis solution was added. 6 h later, reading was performed at a wavelength of 570 nm.

[2] = in vitro; assay type: cell-based; conditions: human
Experimental: (§3) The anti-HCV activity assay was performed by using Huh7.5.1 cells (presented by WUHAN INSTITUTE of VIROLOGY, CHINESE ACADEMY OF SCIENCES) infected by HCV (J399E) inserted with enhanced green fluorescent protein (EGFP). The variation of the green fluorescence intensity was recorded on a microplate reader and cytotoxicity was measured at the same time, so as to evaluate the influence of the compound on the replication activity of HCV.
as §1, with “USA)). The final concentration of DMSO for cell culture was less than 0.25% (V/V, Volume to Volume), and such DMSO concentration would not affect the growth of cells.” for “USA)).”
as §2

[3] = system: Huh7.5.1 cells; assay: in vitro; assay type: cell-based
Experimental: as §3
as §1, with “USA)). The final concentration of DMSO for cell culture was less than 0.25% (V/V, Volume to Volume), and such DMSO concentration would not affect the growth of cells.” for “USA)).”
as §2

[4] = Hepatitis C virus, Huh-7.5.1, 72 h
[5] = HCV (J399E)-EGFP infected Huh7.5.1 cells, MOI=0.1, 72 h incubation

Compound | IC50 [1, 4] [µM] | SI (bioactivity selective index) [1] | CC50 at 72 h [2] [µM] | IC50 [1, 5] [µM] | CC50 [3] [µM]
NC(=O)c1ncn([C@@H]2O[C@H](CO)[C@@H](O)[C@H]2O)n1 [ribavirin, reference compound] | 48.3 | 9.3 | 449 |  | 
CNC(=O)c1nc(-c2nccs2)sc1CC(C)C [Compound C281] |  |  |  | 13.6 | > 100
CC(C)Cc1sc(-c2nccs2)nc1CNC(=O)c1nc(-c2nccs2)sc1CC(C)C [Compound C503] | 1.4 | >71 | > 100 |  | 
CC(C)Cc1sc(-c2nccs2)nc1C(=O)NCc1ccc(F)cc1 [Compound W28F] | 7.5 | 4.9 | 36.9 |  | 
CCC(=O)c1nc(-c2nccs2)sc1CC(C)C [Compound C280-4] |  |  |  | 8.9 | > 100
CCC(O)c1nc(-c2nccs2)sc1CC(C)C (centres unmarked) [Compound C282-2] | 2.8 | >35.7 | > 100 |  | 
CCOC(=O)/C=C/c1nc(-c2nccs2)sc1CC(C)C [Compound C322-2] |  |  |  | 9.8 | > 100
CCOC(=O)CCc1nc(-c2nccs2)sc1CC(C)C [Compound C324-5] |  |  |  | 36.6 | > 100
CC(C)Cc1sc(-c2nccs2)nc1C(=O)NCc1ccccc1 [Compound C357] | 2.8 | >11.9 | > 33.3 |  | 
CC(C)Cc1sc(-c2nccs2)nc1C(N)=O [Compound C267] |  |  |  | 4.9 | > 100
CC(C)Cc1sc(-c2nccs2)nc1C(=O)Nc1ccccc1 [Compound C343] |  |  |  | 19.1 | > 100
Cc1cnc(-c2nc(C(=O)NCc3ccc(F)cc3)c(CC(C)C)s2)s1 [Compound W28MF] | 0.8 | >125 | > 100 |  | 
O=C(O)c1nc(-c2nccs2)sc1Cc1ccccc1 [Compound C302] |  |  |  | 25.7 | 67.5

Source: patent publication US20120264793A1, “Pharmaceutical Use of 2',2-Bis-Thiazole Non-Nucleoside Compounds as Hepatitis C Virus Inhibitor” (Shanghai Institute of Materia Medica, Chinese Academy of …, priority 2009, published 2012)
